Measured values as given in US20260250318A1, “COMPOSITIONS AND METHODS FOR CROSSING THE BLOOD BRAIN BARRIER” (VOYAGER THERAPEUTICS, INC., priority 2022, published 2026).

Test system: brain, spinal cord, and DRG of the NHPs
Test: NGS fold enrichment of synthetic library (passage 3) in NHPs, first cross-species screen
Format: in vivo, cynomolgus macaques (Macaca fascicularis)
Conditions: synthetic library passage 3, intravenous, RNA NGS, brain of NHPs, relative to wild-type AAV9
Procedure, shortened: (§1)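 Synthetic capsid library (passage 3) was given intravenously […] to NHPs aged 2-4 years and to BALB/c and C57Bl/6 mice (n=3 each, 6-8 weeks). After about 28 days in vivo, tissue RNA was RT-PCR amplified and NGS-sequenced; values are fold enrichment per variant relative to wild-type AAV9.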

Sequence	Fold enrichment over AAV9 in the brain of NHPs [fold]
GSGRLVPNGPNQQT	2.314
GSGSSSRPYQNQQT	1.934
GSRQSKRNELNQQT	2.177
GSGQNQQTSTTPLP	1.052
GSGQNQQHSSSHLT	1.581
GSGQNQQGTLLHQT	1.728
GSGQNQQTSLQDQT	2.505
GSGQRNPLLLNQQT	1.693
GSGQNQQLGSRQCT	1.102
GSGQSMTLHLNQQT	1.827
GSGSDMSSWQNQQT	1.651
GSAGISPSGQNQQT	1.797
GSGQNQQASLPSRT	1.456
GSGTQIPSQQNQQT	3.112
GSNLSFQSGQNQQT	2.122
GSGEYSRSGQNQQT	2.145
GSGTHNSAIQNQQT	1.469
GSGMPIRNVQNQQT	1.584
GSGQNQQTVSRQST	1.820
GSGQMVHTIGNQQT	1.026
GHSFVNRSGQNQQT	2.447
GSGQNVSSVHRQQT	1.045
GLNHFGASGQNQQT	3.802
GSGLPVLSGQNQQT	3.100
GSGQNQQSMGTFTT	1.625

Same assay, conditions: synthetic library passage 3, intravenous, RNA NGS, spinal cord of NHPs, relative to wild-type AAV9

Sequence	Fold enrichment over AAV9 in the spinal cord of NHPs [fold]
GSGRLVPNGPNQQT	3.925
GSGSSSRPYQNQQT	3.823
GSRQSKRNELNQQT	0.000
GSGQNQQTSTTPLP	2.823
GSGQNQQHSSSHLT	2.782
GSGQNQQGTLLHQT	2.065
GSGQNQQTSLQDQT	0.500
GSGQRNPLLLNQQT	0.144
GSGQNQQLGSRQCT	0.183
GSGQSMTLHLNQQT	0.991
GSGSDMSSWQNQQT	0.175
GSAGISPSGQNQQT	1.812
GSGQNQQASLPSRT	0.389
GSGTQIPSQQNQQT	1.224
GSNLSFQSGQNQQT	5.853
GSGEYSRSGQNQQT	0.745
GSGTHNSAIQNQQT	0.570
GSGMPIRNVQNQQT	0.138
GSGQNQQTVSRQST	0.472
GSGQMVHTIGNQQT	1.328
GHSFVNRSGQNQQT	11.148
GSGQNVSSVHRQQT	0.712
GLNHFGASGQNQQT	3.188
GSGLPVLSGQNQQT	4.149
GSGQNQQSMGTFTT	0.000

Same assay, conditions: synthetic library passage 3, intravenous, RNA from brain of NHPs, NGS, relative to wild-type AAV9

Sequence	Fold enrichment over AAV9 in the brain of NHPs [fold]
GSGQNQQHYGSQGT	1.189
GSGQMSDVHGNQQT	1.346
GSGQNQQHSLSSQT	1.150
GSGQNQQPSAFSKT	1.220
GSGNYRDHEQNQQT	1.193
GSGQNQQTVGGKNL	1.203
GSGLALERSQNQQT	1.311

Same assay, conditions: synthetic library passage 3, intravenous, RNA from spinal cord of NHPs, NGS, relative to wild-type AAV9

Sequence	Fold enrichment over AAV9 in the spinal cord of NHPs [fold]
GSGQNQQHYGSQGT	0.453
GSGQMSDVHGNQQT	7.172
GSGQNQQHSLSSQT	3.844
GSGQNQQPSAFSKT	4.906
GSGNYRDHEQNQQT	7.389
GSGQNQQTVGGKNL	0.128
GSGLALERSQNQQT	0.486

Test system: brain
Test: NGS fold enrichment of synthetic library (passage 3) in BALB/c mice, first cross-species screen
Format: in vivo
Conditions: synthetic library passage 3, intravenous, RNA NGS, brain of BALB/c mice, relative to wild-type AAV9
Procedure, shortened: as §1

Sequence	Fold enrichment over AAV9 in the brain of Mice (BALB/c) [fold]
GSGRLVPNGPNQQT	0.411
GSGSSSRPYQNQQT	0.496
GSRQSKRNELNQQT	0.232
GSGQNQQTSTTPLP	0.741
GSGQNQQHSSSHLT	0.859
GSGQNQQGTLLHQT	1.303
GSGQNQQTSLQDQT	0.968
GSGQRNPLLLNQQT	0.740
GSGQNQQLGSRQCT	0.407
GSGQSMTLHLNQQT	0.248
GSGSDMSSWQNQQT	0.303
GSAGISPSGQNQQT	0.622
GSGQNQQASLPSRT	0.673
GSGTQIPSQQNQQT	0.151
GSNLSFQSGQNQQT	0.719
GSGEYSRSGQNQQT	0.205
GSGTHNSAIQNQQT	0.574
GSGMPIRNVQNQQT	0.631
GSGQNQQTVSRQST	0.796
GSGQMVHTIGNQQT	0.430
GHSFVNRSGQNQQT	0.756
GSGQNVSSVHRQQT	0.271
GLNHFGASGQNQQT	0.579
GSGLPVLSGQNQQT	0.210
GSGQNQQSMGTFTT	0.399

Same assay, conditions: synthetic library passage 3, intravenous, RNA from brain of BALB/c mice, NGS, relative to wild-type AAV9

Sequence	Fold enrichment over AAV9 in the brain of Mice (BALB/c) [fold]
GSGQNQQHYGSQGT	0.379
GSGQMSDVHGNQQT	0.548
GSGQNQQHSLSSQT	0.730
GSGQNQQPSAFSKT	0.754
GSGNYRDHEQNQQT	0.222
GSGQNQQTVGGKNL	1.051
GSGLALERSQNQQT	0.096

Test system: brain
Test: NGS fold enrichment of synthetic library (passage 3) in C57Bl/6 mice, first cross-species screen
Format: in vivo
Conditions: synthetic library passage 3, intravenous, RNA NGS, brain of C57Bl/6 mice, relative to wild-type AAV9
Procedure, shortened: as §1

Sequence	Fold enrichment over AAV9 in the brain of Mice (C57Bl/6) [fold]
GSGRLVPNGPNQQT	0.639
GSGSSSRPYQNQQT	0.962
GSRQSKRNELNQQT	1.325
GSGQNQQTSTTPLP	0.828
GSGQNQQHSSSHLT	1.091
GSGQNQQGTLLHQT	1.347
GSGQNQQTSLQDQT	0.315
GSGQRNPLLLNQQT	0.662
GSGQNQQLGSRQCT	0.987
GSGQSMTLHLNQQT	0.721
GSGSDMSSWQNQQT	0.281
GSAGISPSGQNQQT	0.784
GSGQNQQASLPSRT	0.930
GSGTQIPSQQNQQT	0.470
GSNLSFQSGQNQQT	1.087
GSGEYSRSGQNQQT	0.617
GSGTHNSAIQNQQT	0.762
GSGMPIRNVQNQQT	0.684
GSGQNQQTVSRQST	1.330
GSGQMVHTIGNQQT	0.406
GHSFVNRSGQNQQT	1.305
GSGQNVSSVHRQQT	0.383
GLNHFGASGQNQQT	0.774
GSGLPVLSGQNQQT	0.631
GSGQNQQSMGTFTT	1.792

Same assay, conditions: synthetic library passage 3, intravenous, RNA from brain of C57Bl/6 mice, NGS, relative to wild-type AAV9

Sequence	Fold enrichment over AAV9 in the brain of Mice (C57Bl/6) [fold]
GSGQNQQHYGSQGT	1.345
GSGQMSDVHGNQQT	0.408
GSGQNQQHSLSSQT	0.700
GSGQNQQPSAFSKT	1.309
GSGNYRDHEQNQQT	0.287
GSGQNQQTVGGKNL	0.777
GSGLALERSQNQQT	0.618
